The source of these data is patent publication US20070207967A1, “Peptide Inhibitors of Matrix Metalloproteinase Activity” (CTT CANCER TARGETING TECHNOLOGIES OY, priority 2004, published 2007).

One assay relates to HT1080 cells. Nature of the assay: HT1080 cell adhesion to vitronectin or fibronectin. The assay is classed as cell-based, human. As to conditions: proteins 40 μg/ml, CRV peptide 200 μM. As to the method:
Cell adhesion. HT1080 cells were allowed to adhere on vitronectin or fibronectin (2 μg/ml) in the presence or absence of peptides (200 μM), proteins (40 μg/ml) or a monoclonal anti-αvβ5 integrin antibody P1F6 (Chemicon) or a control antibody (25 μg/ml). The adhesion was quantified as described (14). Adhesion of THP-1 cells to immobilized KIM127 or control monoclonal antibodies (2 μg/ml) was done in the presence or absence of soluble proteins (50 μg/ml) or antibodies (25 μg/ml).

For assay [1], the target named is T1, pro-MMP-9 (Homo sapiens, UniProt P14780). Nature of the assay: Phage binding to pro-MMP-9 with competitors. The conditions noted are these: competitor peptides 20 μM, gelatin 2.5 μg/ml. How it is done:
Phage display. Phage display selections were made using random peptide libraries CX7-10C and X9-10 (13). Purified human pro-MMP-9 (9) or recombinant MMP-9 C domain (2 μg/ml) was immobilized on microtiter wells and the wells were blocked with BSA. The phage were added in 50 mM Hepes (pH 7.5)/5 mM CaCl2/1 μM ZnCl2/150 mM NaCl/2% BSA. After three rounds of selection the phage sequences were determined (14). The phage binding specificity was tested with pro-MMPs or the recombinant domains (20 ng/well). The phage (10^8 transducing units/well) were allowed to bind in the absence or presence of competitor peptides (20 μM), gelatin (2.5 μg/ml) or TIMP-1 (2.5 μg/ml, Calbiochem) followed by washings with PBS/0.05% Tween20 (PBST). The phage were detected with a peroxidase-conjugated anti-phage antibody (Amersham Biosciences).

The subject of assay [2] is HSC-3 tongue squamous cell carcinoma xenografts. Nature of the assay: Tumor growth in vivo, HSC-3 xenografts.
Procedure: Tumor growth in vivo. […] HSC-3 tumors were established by administering 5×10^6 tumor cells in a 100 μl volume in PBS in both flanks of the Hsd:Athymic Nude-nu mice. After three days, the mice received five daily injection of 0.8 mg/ml CRV or the scrambled peptide or the vehicle (PBS) via the tail vein in a 200 μl volume. Three-dimensional caliper measurements were taken twice a week and the tumor volumes calculated. Mice were sacrificed when the tumor volume reached 1000 mm^3. For the staining of the tumor vasculature, 7 μm frozen tissue sections were stained with anti-CD31 antibody (MEC 13.3, BD Biosciences) and anti-rat Alexa Fluor 488 antibodies.
For another assay, the target named is T2, CBD (Homo sapiens, UniProt P14780).
T2 construct: CBD (amino acids Gly^204-Gly^373) was amplified from MMP-9 cDNA; made in house; host or cells: E. coli
In words: Gelatin binding to immobilized CBD. The conditions noted are these: biotinylated gelatin. How it is done: Gelatin and CBD binding assays. Recombinant CBD or human plasma fibronectin (Calbiochem) (0.2 μg/ml in TBS) was immobilized in microtiter wells. The wells were saturated with 1% BSA-PBST. Biotinylated gelatin (0.2 μg/ml in 1% BSA-PBST) was added with or without peptides at the concentrations indicated or with an excess of unlabelled gelatin (10 μg/ml) and allowed to bind for 1 h. Bound gelatin was detected with streptavidin-peroxidase. CBD binding to immobilized fibronectin, the 110-kDa fragment of fibronectin (Upstate Biotechnology) or urea-denaturated human plasma vitronectin (17) (1 μg/well) was studied using biotinylated CBD (5 μg/ml) in 1% BSA-PBST in the presence or absence of 20 μM peptides.

The target in assay [3] is T1, pro-MMP-9. In words: Activation of purified pro-MMP-9 by MMP-3 in vitro. The conditions noted are these: 200 μM, 1 h, 37° C. The class given is biochemical.
Assay [4] addresses T1, pro-MMP-9. In words: Pro-MMP-9 activation in THP-1 cells, zymography. The assay is classed as cell-based. As to conditions: THP-1, pro-MMP-3 and plasminogen, peptides 200 μM. How it is done: Activation of MMP-9. THP-1 cells (40 000/100 μl) or confluent HT1080 cells were incubated for 16 h in the presence or absence of 2.5 μg/ml plasminogen, 0.5 μg/ml pro-MMP-3 (Oncogene Research Products), 40 nM PDBu, and the peptides at a 200 μM concentration unless otherwise indicated. Aliquots of the conditioned media were analyzed by gelatin zymography (9). […] The samples were analyzed by gelatin zymography.

T1 sequence (P14780 20-707 limits assumed): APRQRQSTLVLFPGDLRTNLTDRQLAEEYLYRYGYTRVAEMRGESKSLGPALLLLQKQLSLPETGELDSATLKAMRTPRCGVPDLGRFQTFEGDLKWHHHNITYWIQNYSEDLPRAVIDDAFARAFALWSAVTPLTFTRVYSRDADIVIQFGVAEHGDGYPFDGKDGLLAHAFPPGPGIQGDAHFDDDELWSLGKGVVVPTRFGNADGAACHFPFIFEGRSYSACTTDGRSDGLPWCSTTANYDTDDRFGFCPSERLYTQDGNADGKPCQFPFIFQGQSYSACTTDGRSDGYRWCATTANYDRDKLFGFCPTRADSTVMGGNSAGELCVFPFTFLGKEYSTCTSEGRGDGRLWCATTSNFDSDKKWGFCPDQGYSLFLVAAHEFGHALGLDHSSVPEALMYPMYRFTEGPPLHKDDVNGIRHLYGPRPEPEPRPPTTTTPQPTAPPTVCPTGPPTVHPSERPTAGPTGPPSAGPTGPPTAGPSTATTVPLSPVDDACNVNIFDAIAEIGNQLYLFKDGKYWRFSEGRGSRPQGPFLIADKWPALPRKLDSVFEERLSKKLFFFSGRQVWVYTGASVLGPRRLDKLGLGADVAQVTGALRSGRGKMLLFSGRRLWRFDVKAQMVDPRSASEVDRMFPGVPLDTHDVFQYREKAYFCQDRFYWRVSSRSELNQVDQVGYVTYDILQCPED
T2 sequence (P14780 223-392 limits assumed): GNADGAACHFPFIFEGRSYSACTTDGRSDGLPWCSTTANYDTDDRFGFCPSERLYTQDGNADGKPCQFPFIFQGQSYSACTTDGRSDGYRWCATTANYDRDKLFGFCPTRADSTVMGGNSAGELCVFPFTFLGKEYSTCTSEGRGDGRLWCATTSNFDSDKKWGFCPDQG

CRVYGPYLLC: the “Inhibition of HT1080 cell adhesion to vitronectin or fibronectin” value in the assay on HT1080 cells is on record as “Neither”. In addition, in the assay with pro-MMP-9 [1], the “Binding of PPC peptide-bearing phage to pro-MMP-9, competition” value is “not”. Moreover, the “Binding of the CRV-phage to pro-MMP-9, competition” value with pro-MMP-9 [1] (TIMP-1 2.5 μg/ml) is “inhibited”. Besides, in assay [2] (after two months), the “Survival of the mice” value is “all five CRV-injected mice were alive”. In addition, the “Inhibition of tumor growth” value in assay [2] (at 31 days, five daily i.v. injections, vs scrambled peptide or PBS) is recorded as “statistically significant inhibition of tumor growth”. In addition, in assay [2] (mouse, in vivo), the “Kaplan-Meier survival, Log-Rank test p vs. PBS” value amounted to 0.002; the “Kaplan-Meier survival, Log-Rank test p vs. scrambled CRV” value is reported as 0.003; the “Tumor vasculature, CD31 immunostaining” value is given as “less developed tumor vasculature”. The “Inhibition of gelatin binding to immobilized CBD” value in the assay with CBD is listed as “not”. For the same sequence, the “Inhibition of activation of purified pro-MMP-9 by MMP-3” value in the assay with pro-MMP-9 [3] is on record as “did not inhibit”. Further, in the assay with pro-MMP-9 [4], the “Effect on pro-MMP-9 activation” value is given as “blocked”.
